Data reported in ChEMBL document CHEMBL1201862, “PubChem BioAssay data set” (2004).
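1) Cells in 96-well plates. 2) Compound, 48 h, 5 concentrations. 3) Linear interpolation between surrounding doses. 4) Unreached endpoint = highest concentration. Here, GI50 denotes the concentration required for 50% inhibition of growth.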 Active and inactive are the calls of the source. No stated cut-off is given here; in the data, active = GI50 up to about 1.1 µM and inactive = higher.

Legend:
Assay in all cases: NCI anticancer screen, dose series, 48 h
A549 = tested on: A549
EKVX = tested on: EKVX
HCC 2998 = tested on: HCC 2998
HCT-15 = tested on: HCT-15
HL-60 = tested on: HL-60
HOP-92 = tested on: HOP-92
HT-29 = tested on: HT-29
IGROV-1 = tested on: IGROV-1
KM12 = tested on: KM12
LOX IMVI = tested on: LOX IMVI
NCI-H522 = tested on: NCI-H522
OVCAR-5 = tested on: OVCAR-5
SF-268 = tested on: SF-268
SF-295 = tested on: SF-295
SK-MEL-28 = tested on: SK-MEL-28
SNB-75 = tested on: SNB-75
SR = tested on: SR
SW-620 = tested on: SW-620
UO-31 = tested on: UO-31
T47D = tested on: T47D

SMILES	GI50 (A549)	GI50 (EKVX)	GI50 (HCC 2998)	GI50 (HCT-15)	GI50 (HL-60)	GI50 (HOP-92)	GI50 (HT-29)	GI50 (IGROV-1)	GI50 (KM12)	GI50 (LOX IMVI)	GI50 (NCI-H522)	GI50 (OVCAR-5)	GI50 (SF-268)	GI50 (SF-295)	GI50 (SK-MEL-28)	GI50 (SNB-75)	GI50 (SR)	GI50 (SW-620)	GI50 (UO-31)	GI50 (T47D)
COC(=O)CCC(=O)C(CC(=O)OC)C(=O)CCC(=O)NCCc1ccccc1 (stereo not drawn)	> 100 µM (inactive)	> 100 µM (inactive)	> 100 µM (inactive)	> 100 µM	> 100 µM (inactive)	> 100 µM (inactive)	> 100 µM (inactive)	> 100 µM (inactive)	> 100 µM (inactive)	> 100 µM (inactive)	> 100 µM (inactive)	> 100 µM (inactive)	> 100 µM (inactive)	> 100 µM (inactive)	> 100 µM (inactive)	> 100 µM (inactive)	> 100 µM (inactive)	> 100 µM (inactive)	> 100 µM (inactive)	–
O/N=C1\SC(=N\O)/C(=N/O)S\C1=N/O	> 100 µM (inactive)	> 100 µM (inactive)	> 100 µM (inactive)	> 100 µM	21 µM (inactive)	> 100 µM (inactive)	> 100 µM (inactive)	> 100 µM (inactive)	79.4 µM (inactive)	> 100 µM (inactive)	16.2 µM (inactive)	> 100 µM (inactive)	–	> 100 µM (inactive)	> 100 µM (inactive)	> 100 µM (inactive)	38.2 µM (inactive)	> 100 µM (inactive)	87.5 µM (inactive)	–
O=c1c2cc(Br)cc(Br)c2nc(CCCl)n1-c1ccc(O)c([N+](=O)[O-])c1	15.5 µM (inactive)	34.5 µM (inactive)	18.5 µM (inactive)	19 µM	23.3 µM (inactive)	24 µM (inactive)	20.6 µM (inactive)	22.6 µM (inactive)	18.5 µM (inactive)	–	9.66 µM (inactive)	18.9 µM (inactive)	19.3 µM (inactive)	24.1 µM (inactive)	19.7 µM (inactive)	19.8 µM (inactive)	41.5 µM (inactive)	19.4 µM (inactive)	19.7 µM (inactive)	–
COc1ccccc1C(=O)c1ccc2ccccc2c1	17.9 µM (inactive)	16.5 µM (inactive)	51.8 µM (inactive)	9.55 µM	3.21 µM (inactive)	18.7 µM (inactive)	16.7 µM (inactive)	11.3 µM (inactive)	4.34 µM (inactive)	12.6 µM (inactive)	5.85 µM (inactive)	64.6 µM (inactive)	30.5 µM (inactive)	22 µM (inactive)	39.3 µM (inactive)	38.2 µM (inactive)	3.24 µM (inactive)	8.3 µM (inactive)	20.6 µM (inactive)	–
CCN1C(=O)C(=C/C=C/c2ccc(N(CC)CC)cc2)C(=O)N(CC)C1=S	> 100 µM (inactive)	> 100 µM (inactive)	> 100 µM (inactive)	> 100 µM	23.6 µM (inactive)	> 100 µM (inactive)	> 100 µM (inactive)	> 100 µM (inactive)	> 100 µM (inactive)	> 100 µM (inactive)	–	> 100 µM (inactive)	> 100 µM (inactive)	> 100 µM (inactive)	> 100 µM (inactive)	–	–	> 100 µM (inactive)	> 100 µM (inactive)	> 100 µM (inactive)
CCCCCCCCCCCc1nnc(N)o1	> 100 µM (inactive)	–	> 100 µM (inactive)	> 100 µM	37.2 µM (inactive)	> 100 µM (inactive)	> 100 µM (inactive)	> 100 µM (inactive)	> 100 µM (inactive)	> 100 µM (inactive)	67 µM (inactive)	> 100 µM (inactive)	99.1 µM (inactive)	> 100 µM (inactive)	> 100 µM (inactive)	> 100 µM (inactive)	> 10 µM (inactive)	> 100 µM (inactive)	13.6 µM (inactive)	–
N#Cc1c(N2CCOCC2)[nH]c(=O)c(C(c2c(Cl)cccc2Cl)c2c(O)c(C#N)c(N3CCOCC3)[nH]c2=O)c1O	77.6 µM (inactive)	18.3 µM (inactive)	12.5 µM (inactive)	15 µM	12.9 µM (inactive)	18 µM (inactive)	15.4 µM (inactive)	18.1 µM (inactive)	16.1 µM (inactive)	13 µM (inactive)	13.4 µM (inactive)	14 µM (inactive)	19.5 µM (inactive)	30.5 µM (inactive)	17.9 µM (inactive)	–	5.89 µM (inactive)	17.7 µM (inactive)	18.2 µM (inactive)	–
CC(=O)OCC1OC(n2cccnc2=O)C(OC(C)=O)C1OC(C)=O (stereo not drawn)	> 100 µM (inactive)	> 100 µM (inactive)	–	> 100 µM	> 100 µM (inactive)	> 100 µM (inactive)	> 100 µM (inactive)	–	> 100 µM (inactive)	> 100 µM (inactive)	> 100 µM (inactive)	> 100 µM (inactive)	> 100 µM (inactive)	–	> 100 µM (inactive)	> 100 µM (inactive)	> 100 µM (inactive)	> 100 µM (inactive)	> 100 µM (inactive)	–
